Measurements taken from patent US6984656B2, “Core modified porphyrins” (priority 2001, dated 2006).

Tests used:
[1] = Clearance from the serum by fluorescence; format: in vivo, mice; settings: fluorescence measurements, post-injection
Procedure: BALB/c mice were treated with 5 mg/kg of photosensitizer 6 and the ear-swelling response (ESR) was determined at selected time-points.

BALB/c mice = settings: mouse, in vivo, 10 mg/kg
Colo-26 cells = assay: Dark and light-induced toxicity toward Colo-26 cells in culture; format: cell-based, murine
Procedure: In order to compare relative phototoxicity, the core-modified porphyrins of Table 1 were evaluated in culture for dark and light-induced toxicities toward Colo-26 cells, a murine colon carcinoma cell line.

Colo-26 tumors = assay: PDT against implanted Colo-26 tumors in BALB/c mice; format: in vivo; settings: 6 at 3.25 mg (3.0 μmol)/kg and 694-nm light
Procedure: Core-modified porphyrin 6 gave a PDT response in vivo with 694-nm light in BALB/c mice bearing Colo-26 tumors. Animals treated with photosensitizer 6 at 3.25 mg (3.0 μmol)/kg and light required 10.3±0.8 d to reach 400-mm^3 tumor volume, which was more than double the time for control animals (4.3±1.0 d) receiving neither drug nor light (P <0.01).
The animals were irradiated 4 h post-injection with 135 J cm^−2 of 694-nm red light from a dye laser (75 mW cm^−2 for 30 min). […] For comparison purposes, BALB/C mice bearing Colo-26 tumors were given 2.5 mg (4.0 μmol)/kg of Photofrin® as a 5% aqueous dextrose solution and were irradiated 24 h later with 135 J cm^−2 of 630-nm laser light at a power of 75 mW cm^−2 for PDT with Photofrin®.
Animals initially were given i.v. (tail vein) injections of sensitizer at various concentrations (0.05to 5.0 μmol/kg). Mice were restrained at various times thereafter without anesthesia in specially designed holders. Fischer 344 female rats were chemically restrained at various times thereafter. In both models, tumors or normal back skin were exposed to light from a xenon arc lamp with appropriate filters or to a dye laser tuned to the absorption maximum determined by in vivo reflectance measurements. Power density of delivered light typically fell in the range of 10-200 mW cm^−2 evenly distributed to a spot size of roughly 1.5 cm and measured by a radiometer. Several dose rates were explored to examine role/limitation of available oxygen on the photodynamic process. Intratumor temperatures were measured with an Omega HYP-O microthermocouple and, when necessary, a stream of nitrogen gas was used to keep intratumor temperatures below 37° C. Animals were examined and measured daily for the first 14 days post treatment and every other day thereafter until the tumors reached 400 mm^3 in mice or until the tumors double in size for Fischer 344 female rats or for 90 days. Tumor size were measured in two dimensions with a caliper. Time to 400 mm^3 or volume doubling times of tumors from control and PDT-treated groups (8-12 animals per group) were compared statistically using the SAS statistical program (SAS, Inc., Cary, N.C.). A P-value of <0.05 is considered significant. The degree of damage to the normal skin within the irradiation field also were noted. Disappearance of tumor with minimal damage to normal skin is the most desirable response. Animals are considered cured if no tumor regrowth occurs by 90 days. In all studies, three control groups were utilized in addition to the treatment group receiving both sensitizer and light: 1) a complete control receiving neither drug nor light, 2) a group receiving sensitizer only, and 3) a group receiving light only. Representative animals from each of the treatment groups were processed for histology immediately, one day, or two weeks after irradiation. Step sections through the tumor were used to define the boundaries of tumor cell damage and death as a function of distance from the skin surface.

[2] = 5 mg (5 μmole)/kg of 6; BALB/c mice bearing Colo-26 tumors; cited from earlier work
[3] = Tissue distribution by fluorescence in tumor-bearing BALB/c mice; settings: mouse, in vivo
Procedure: At various times after sensitizer administration, animals were sacrificed and sensitizer levels determined by direct extraction. In tumor-bearing animals (BALB/c mice or female Fischer rats), the concentration of sensitizer was determined by fluorescence spectroscopy where possible. At various time points post-injection of 5 μmol/kg of sensitizer or 90% of the LD10 (whichever is smaller), tissues were removed, weighed, homogenized, and frozen in liquid nitrogen (3-5 animals per time point). The homogenate, after thawing, was taken up in Solvable and the emission from sensitizer was quantified in terms of ng of sensitizer/mg of protein. With non-fluorescent sensitizers, sensitizer content was quantified spectrophotometrically. Distribution ratios were expressed as the uptake or retention of sensitizer in tumor relative to various normal tissues. Intensified digital fluorescence microscopy and/or confocal microscopy on frozen sections of the tumors, which were prepared from samples specified for this purpose, enabled us to assess intratumor sensitizer distributions.

[4] = Rate of photobleaching in phosphate-buffered saline; format: physicochemical; settings: PBS; 570-750 nm light at 500 mW cm^−2; constant initial absorbance
Source text: One limitation of PDT dosimetry is the rate of photobleaching of the photosensitizer, which can be problematic with Photofrin® and even more problematic with the bacteriochlorins and the chlorins (such as HPPH).

Substance: 5,10,15,20-tetrakis(4-sulfonatophenyl)-21,23-dithiaporphyrin [Compound 6]
- time to clearance from the serum [1]: 7 days
- toxicity and morbidity (BALB/c mice): no toxicity, morbidity, or side effects were observed
- EC50 (Colo-26 cells; 24 h incubation in dark, 4 J cm^−2 of 590-800 nm light, survival 24 h later, read-out: effective concentration to give 50% cell-kill of Colo-26 cells in vitro (EC50)): 30 µM
- dark toxicity toward Colo-26 cells (Colo-26 cells; dark, concentrations ≦100 μg/mL (≦100 μM)): negligible dark toxicity
- time to reach 400-mm^3 tumor volume (Colo-26 tumors): 10.3 ± 0.8 days
- concentration in tumor 24 h post-injection [2]: 0.019±0.007 μg/g of protein
- tumor selectivity of uptake by fluorescence [3]: preferentially taken up by tumor
- rate of photobleaching (kbleach) [4]: 0.84 ± 0.02 × 10^4 s^−1
